Data reported in patent publication US20110136916A1, “6-SHOGAOL FOR USING IN A METHOD FOR THE TREATMENT OF LEUKEMIA” (China Pharmaceutical University, priority 2009, published 2011).
Read-outs that look alike come from different tables or passages of the source.

Columns and labels:
[1] = system: human acute T cell leukemic cell Jurkat; assay: MTT anti-proliferation, Jurkat; type: cell-based; details: for growth inhibition (activities of cells vs control): 1-20 μM; for IC50: MTT
Description: (§1) Cells in logarithmic growth phase were collected and then inoculated in 1˜2×10^4 cells/well in a 96-well plate respectively according to the sizes of cells and whether they attached to the wall, the cells were centrifuged and the supernatant was removed after growing for 24 hours, and then drug administration was carried out according to the groups as below: the drug group and the drug free group were set up for tumor cells (the concentrations ranged from 1˜20 μM), 5 or 6 duplicates were set for each group and the cells were incubated for 24 or 72 hours. The supernatant was removed and 100 μl serum free culture solution containing 0.5 mg/ml MTT (tetrazolium) was added for further incubation for 4 hours, subsequently 100 μl DMSO (dimethyl sulfoxide) was added and the plate was kept on the micro-shaker for 10 minutes, and the OD value was determined on a micro-plate reader at the wavelength of 570 nm. Evaluations on the toxicity were carried out on normal human cell line LO-2 and each test was repeated for three times.

[2] = system: human chronic granulocytic leukemia K562; assay: MTT anti-proliferation, K562; type: cell-based; details: for IC50: K562, MTT, n = 3; for growth inhibition (activities of cells vs control): K562, 1-20 μM
Description: as §1

[3] = system: peripheral blood lymphocytes (PBMC) of clinical leukemia patients; assay: Annexin V/PI apoptosis of PBMC from leukemia patients; type: cell-based, human; details: 24 hours
Description: After application by the research group and approval by the Ethics Committee of the hospital, the leukemia patients (healthy volunteers) signed the informed consent and their fresh blood was collected and transferred into heparin anticoagulation tubes, then the same volume of serum free D-Hank buffer (preheated at 37° C.) was added to re-suspend the cells, and the suspension was added to the pre-laid human lymphocyte separating medium (preheated at 37° C.), and the volume ratio between the lymphocyte separating medium and the cell suspension should be no lower than 1:1, and the mixture was centrifuged at room temperature (20-30° C.) at 500×g by a horizontal centrifuge for 30 minutes. The upper layer plasma was removed and the white fog layer in the middle was carefully collected and transferred to 5 mL (or 1-2 times of the volume) PBS (or serum free buffer for cell culture), then it was centrifuged at 200×g or 1000 rpm for 10 minutes at room temperature (20-30° C.), and the supernatant was removed, and the obtained precipitation was the peripheral blood lymphocytes (PBMC). The cells were rinsed twice according to the above-mentioned operations at 500×g by the horizontal centrifuge for 10 minutes at room temperature (20-30° C.), subsequently the cells were collected and their cell vitality was detected by using dye exclusion method for living cells (Trypan blue).
The cells were added to a 24-well plate in 3×10^5 cells/mL/well and different concentrations of 6-shogaol (10 and 20 μM) for treatment for 24 hours after they were incubated for 24 hours. Negative control group (the group without drug) and the treatment group with 6-shogaol were set up for PBMCs from different individuals respectively. After the cells were treated with 6-shogaol for 24 hours, they were transferred into 10 mL glass centrifuge tubes and centrifuged at 500 rpm (or 100×g) for 5 minutes to remove the supernatant. The cells were then rinsed with 0.01 M PBS at 500 rpm (or 100×g) for 5 minutes twice. Subsequently, after adding binding solution and staining according to the directions for use of Annexin V/PI double staining kit (BD Company), flow cytometry analysis (Becton Dickinson FACScan Flow Cytometer) was carried out. The FACS data were analyzed by professional operators of the flow cytometer by using FLOWJO software (Tree Star, Calif.) software, the apoptotic rate was counted by the sum of early apoptosis and late apoptosis, and the results were shown in Table 4 and Table 5.

[4] = system: pulmonary carcinoma A549 cells; details: 48 hours; read-out: IC50 for inhibiting the proliferation of A549 cells; cited from earlier work
[5] = system: human colon carcinoma COLO 205 cells; details: read-out: IC50 for inhibiting the growth of COLO 205 cells; cited from earlier work
melanoma SK-MEL-2 cells = details: cited from earlier work
[6] = system: colon carcinoma HCT15 cells; details: cited from earlier work

Structure (SMILES): CCCCC/C=C/C(=O)CCc1ccc(O)c(OC)c1 [6-shogaol]
- growth inhibition (activities of cells vs control) ([1]; 24 hours, FIG. 3): significantly decreased
- growth inhibition (activities of cells vs control) ([1]; 72 hours, FIG. 7): significantly decreased
- IC50 ([1]; Homo sapiens, 24 h, 24 hours, n = 3, read-out: Mean IC50 after 24 hours): < 10 µM
- IC50 ([1]; Homo sapiens, 72 h, 72 hours, n = 3, read-out: Mean IC50 after 72 hours): < 5 µM
- IC50 ([1]; 24 hours, n = 3, read-out: Mean IC50 after 24 hours): 5.6 ± 0.4 µM
- IC50 ([1]; 72 hours, n = 3, read-out: Mean IC50 after 72 hours): 3.3 ± 0.3 µM
- IC50 ([2]; Homo sapiens, K562, 24 h, 24 hours, read-out: Mean IC50 after 24 hours): < 10 µM
- IC50 ([2]; Homo sapiens, K562, 72 h, 72 hours, read-out: Mean IC50 after 72 hours): < 5 µM
- growth inhibition (activities of cells vs control) ([2]; 24 hours, FIG. 5): significantly decreased
- growth inhibition (activities of cells vs control) ([2]; 72 hours, FIG. 9): significantly decreased
- IC50 ([2]; 24 hours, read-out: Mean IC50 after 24 hours): 8.5 ± 0.8 µM
- IC50 ([2]; 72 hours, read-out: Mean IC50 after 72 hours): 5 ± 0.62 µM
- induction of apoptosis of PBMC of leukemia patients (t-test) ([3]; 30 cases of leukemia patients, 10 and 20 μM): significantly induce the apoptosis
- Apoptotic rate of 10 μM 6-shogaol ([3]; PBMC of patient P1, 10 μM): 38.5 ± 3.7a %
- Apoptotic rate of 20 μM 6-shogaol ([3]; PBMC of patient P1, 20 μM): 56.9 ± 2.2a %
- Apoptotic rate of 10 μM 6-shogaol ([3]; PBMC of patient P2, 10 μM): 27.6 ± 1.3a %
- Apoptotic rate of 20 μM 6-shogaol ([3]; PBMC of patient P2, 20 μM): 50.1 ± 5.4a %
- Apoptotic rate of 10 μM 6-shogaol ([3]; PBMC of patient P3, 10 μM): 47.9 ± 1.6a %
- Apoptotic rate of 20 μM 6-shogaol ([3]; PBMC of patient P3, 20 μM): 72.9 ± 3.1a %
- Apoptotic rate of 10 μM 6-shogaol ([3]; PBMC of patient P4, 10 μM): 35.7 ± 3.8a %
- Apoptotic rate of 20 μM 6-shogaol ([3]; PBMC of patient P4, 20 μM): 69.7 ± 1.6a %
- Apoptotic rate of 10 μM 6-shogaol ([3]; PBMC of patient P5, 10 μM): 40.5 ± 6.1a %
- Apoptotic rate of 20 μM 6-shogaol ([3]; PBMC of patient P5, 20 μM): 61.9 ± 4.2a %
- Apoptotic rate of 10 μM 6-shogaol ([3]; PBMC of patient P6, 10 μM): 29.3 ± 1.7a %
- Apoptotic rate of 20 μM 6-shogaol ([3]; PBMC of patient P6, 20 μM): 52.7 ± 2.3a %
- Apoptotic rate of 10 μM 6-shogaol ([3]; PBMC of patient P7, 10 μM): 44.6 ± 3.8a %
- Apoptotic rate of 20 μM 6-shogaol ([3]; PBMC of patient P7, 20 μM): 75.9 ± 1.7a %
- Apoptotic rate of 10 μM 6-shogaol ([3]; PBMC of patient P8, 10 μM): 31.3 ± 2.7a %
- Apoptotic rate of 20 μM 6-shogaol ([3]; PBMC of patient P8, 20 μM): 64.7 ± 2.4a %
- Apoptotic rate of 10 μM 6-shogaol ([3]; PBMC of patient P9, 10 μM): 27.5 ± 2.9a %
- Apoptotic rate of 20 μM 6-shogaol ([3]; PBMC of patient P9, 20 μM): 44.8 ± 3.9a %
- Apoptotic rate of 10 μM 6-shogaol ([3]; PBMC of patient P10, 10 μM): 42.4 ± 3.1a %
- Apoptotic rate of 20 μM 6-shogaol ([3]; PBMC of patient P10, 20 μM): 73.5 ± 3.7a %
- Apoptotic rate of 10 μM 6-shogaol ([3]; PBMC of patient P11, 10 μM): 29.7 ± 2.4a %
- Apoptotic rate of 20 μM 6-shogaol ([3]; PBMC of patient P11, 20 μM): 50.1 ± 3.3ac %
- Apoptotic rate of 10 μM 6-shogaol ([3]; PBMC of patient P12, 10 μM): 49.3 ± 4.1a %
- Apoptotic rate of 20 μM 6-shogaol ([3]; PBMC of patient P12, 20 μM): 80.8 ± 5.1ac %
- Apoptotic rate of 10 μM 6-shogaol ([3]; PBMC of patient P13, 10 μM): 55.9 ± 2.7a %
- Apoptotic rate of 20 μM 6-shogaol ([3]; PBMC of patient P13, 20 μM): 82.9 ± 2.5ac %
- Apoptotic rate of 10 μM 6-shogaol ([3]; PBMC of patient P14, 10 μM): 26.7 ± 1.9a %
- Apoptotic rate of 20 μM 6-shogaol ([3]; PBMC of patient P14, 20 μM): 39.7 ± 2.6ac %
- Apoptotic rate of 10 μM 6-shogaol ([3]; PBMC of patient P15, 10 μM): 34.5 ± 3.1a %
- Apoptotic rate of 20 μM 6-shogaol ([3]; PBMC of patient P15, 20 μM): 47.9 ± 4.2ab %
- Apoptotic rate of 10 μM 6-shogaol ([3]; PBMC of patient P16, 10 μM): 39.3 ± 2.3a %
- Apoptotic rate of 20 μM 6-shogaol ([3]; PBMC of patient P16, 20 μM): 46.7 ± 1.6ab %
- Apoptotic rate of 10 μM 6-shogaol ([3]; PBMC of patient P17, 10 μM): 44.6 ± 3.8a %
- Apoptotic rate of 20 μM 6-shogaol ([3]; PBMC of patient P17, 20 μM): 55.9 ± 1.7ab %
- Apoptotic rate of 10 μM 6-shogaol ([3]; PBMC of patient P18, 10 μM): 33.1 ± 3.7a %
- Apoptotic rate of 20 μM 6-shogaol ([3]; PBMC of patient P18, 20 μM): 54.7 ± 2.6ac %
- Apoptotic rate of 10 μM 6-shogaol ([3]; PBMC of patient P19, 10 μM): 37.9 ± 4.9a %
- Apoptotic rate of 20 μM 6-shogaol ([3]; PBMC of patient P19, 20 μM): 51.8 ± 7.9ac %
- Apoptotic rate of 10 μM 6-shogaol ([3]; PBMC of patient P20, 10 μM): 52.9 ± 2.7a %
- Apoptotic rate of 20 μM 6-shogaol ([3]; PBMC of patient P20, 20 μM): 63.6 ± 1.2ab %
- Apoptotic rate of 10 μM 6-shogaol ([3]; PBMC of patient P21, 10 μM): 31.5 ± 4.3a %
- Apoptotic rate of 20 μM 6-shogaol ([3]; PBMC of patient P21, 20 μM): 44.5 ± 2.4ab %
- Apoptotic rate of 10 μM 6-shogaol ([3]; PBMC of patient P22, 10 μM): 20.5 ± 3.1a %
- Apoptotic rate of 20 μM 6-shogaol ([3]; PBMC of patient P22, 20 μM): 38.5 ± 2.1ac %
- Apoptotic rate of 10 μM 6-shogaol ([3]; PBMC of patient P23, 10 μM): 36.2 ± 5.7a %
- Apoptotic rate of 20 μM 6-shogaol ([3]; PBMC of patient P23, 20 μM): 67.1 ± 3.7ac %
- Apoptotic rate of 10 μM 6-shogaol ([3]; PBMC of patient P24, 10 μM): 42.7 ± 2.4a %
- Apoptotic rate of 20 μM 6-shogaol ([3]; PBMC of patient P24, 20 μM): 58.7 ± 3.9ac %
- Apoptotic rate of 10 μM 6-shogaol ([3]; PBMC of patient P25, 10 μM): 47.8 ± 2.9a %
- Apoptotic rate of 20 μM 6-shogaol ([3]; PBMC of patient P25, 20 μM): 69.1 ± 3.3ac %
- Apoptotic rate of 10 μM 6-shogaol ([3]; PBMC of patient P26, 10 μM): 43.3 ± 4.9a %
- Apoptotic rate of 20 μM 6-shogaol ([3]; PBMC of patient P26, 20 μM): 56.9 ± 5.2ac %
- Apoptotic rate of 10 μM 6-shogaol ([3]; PBMC of patient P27, 10 μM): 30.9 ± 1.7a %
- Apoptotic rate of 20 μM 6-shogaol ([3]; PBMC of patient P27, 20 μM): 47.6 ± 3.6ab %
- Apoptotic rate of 10 μM 6-shogaol ([3]; PBMC of patient P28, 10 μM): 39.6 ± 2.2a %
- Apoptotic rate of 20 μM 6-shogaol ([3]; PBMC of patient P28, 20 μM): 56.3 ± 3.8ac %
- Apoptotic rate of 10 μM 6-shogaol ([3]; PBMC of patient P29, 10 μM): 33.7 ± 3.5a %
- Apoptotic rate of 20 μM 6-shogaol ([3]; PBMC of patient P29, 20 μM): 42.4 ± 2.9ab %
- Apoptotic rate of 10 μM 6-shogaol ([3]; PBMC of patient P30, 10 μM): 28.6 ± 2.9a %
- Apoptotic rate of 20 μM 6-shogaol ([3]; PBMC of patient P30, 20 μM): 51.9 ± 4.2ac %
- IC50 [4]: ~60 µM
- IC50 [5]: > 60 µM
- anti-tumor activities (melanoma SK-MEL-2 cells): certain anti-tumor activities
- anti-tumor activities [6]: certain anti-tumor activities
